Measured values reported in patent US20230285420A1, “USE OF C[…] THE TREATMENT OF SEIZURES ASSOCIATED WITH RARE […] SYNDROMES RELATED TO GENETIC ABNORMALITIES” (GW Research Limited, priority 2020, published 2023).
“Also recorded” adds a separate entry of the source.

Test system: seizures associated with gross chromosomal mutations
Assay: Open label, expanded-access program: seizure frequency recorded in caregiver diaries versus baseline in patients on CBD plus concomitant AEDs
Format: in vivo, human
Design: Seizure frequency, Tonic-clonic / Seizure frequency, Atonic / Seizure frequency, Tonic / Seizure frequency, Absence / Seizure frequency, Focal without impairment / Seizure frequency, Focal with impairment: unit not given here
Protocol: Subjects were required to be on one or more AEDs at stable doses for a minimum of two weeks prior to baseline and to have stable vagus nerve stimulation (VNS) settings and ketogenic diet ratios for a minimum of four weeks prior to baseline.
Dose was then increased weekly by 5 mg/kg/day to a goal of to 25 mg/kg/day.
Modifications were made to concomitant AEDs as per clinical indication.
Seizure frequency, intensity, and duration were recorded by caregivers in a diary during a baseline period of at least 28 days. Changes in seizure frequency relative to baseline were calculated after at least 2 weeks and at defined timepoints of treatment.
Patients may be defined as responders if they had more than 50% reduction in seizure frequency compared to baseline. The percent change in seizure frequency was calculated as follows: […]
The percent change of seizure frequency may be calculated for any time interval where seizure number has been recorded. For the purpose of this example the percent change of seizure frequency for the end of the treatment period was calculated as follows: […]

[1] = Patient 5, 2 weeks, CBD 10.0 mg/kg/day
[2] = Patient 5, 4 weeks, CBD 15.0 mg/kg/day
[3] = Patient 5, 8 weeks, CBD 20.0 mg/kg/day
[4] = Patient 5, 12 weeks, CBD 20.0 mg/kg/day
[5] = Patient 5, 16 weeks, CBD 20.0 mg/kg/day
[6] = Patient 5, 24 weeks, CBD 20.0 mg/kg/day
[7] = Patient 5, treated for 24 weeks, vs baseline
[8] = Patient 6, 2 weeks, CBD 10.0 mg/kg/day
[9] = Patient 6, 4 weeks, CBD 20.0 mg/kg/day
[10] = Patient 6, 8 weeks, CBD 25.0 mg/kg/day
[11] = Patient 6, 12 weeks, CBD 25.0 mg/kg/day
[12] = Patient 6, 16 weeks, CBD 25.0 mg/kg/day
[13] = Patient 6, 24 weeks, CBD 25.0 mg/kg/day
[14] = Patient 7, 4 weeks, CBD 10.0 mg/kg/day
[15] = Patient 7, 12 weeks, CBD 10.0 mg/kg/day
[16] = Patient 7, 16 weeks, CBD 10.0 mg/kg/day
[17] = Patient 7, 24 weeks, CBD 10.0 mg/kg/day
[18] = Patient 7, 48 weeks, CBD 15.0 mg/kg/day
[19] = Patient 7, 60 weeks, CBD 20.0 mg/kg/day
[20] = Patient 7, 72 weeks, CBD 20.0 mg/kg/day
[21] = Patient 7, 84 weeks, CBD 25.0 mg/kg/day
[22] = Patient 7, 108 weeks, CBD 25.0 mg/kg/day
[23] = Patient 7, 120 weeks, CBD 23.6 mg/kg/day
[24] = Patient 7, 132 weeks, CBD 23.2 mg/kg/day
[25] = tonic, tonic-clonic, atonic, absence, focal without impairment, focal with secondary generalisation

## C=C(C)[C@@H]1CCC(C)=C[C@H]1c1c(O)cc(CCCCC)cc1O [CBD, cannabidiol]
Patient 5
  treatment time after which patient became seizure free in focal seizures without impairment: 16 weeks
[1]
  Seizure frequency, Absence: 78.0
  Seizure frequency, Focal without impairment: 0.0
  Seizure frequency, Tonic: 8.0
[2]
  Seizure frequency, Absence: 81.8
  Seizure frequency, Focal without impairment: 47.4
  Seizure frequency, Tonic: 4.3
[3]
  Seizure frequency, Absence: 39.6
  Seizure frequency, Focal without impairment: 2.9
  Seizure frequency, Tonic: 1.9
[4]
  Seizure frequency, Absence: 43.4
  Seizure frequency, Focal without impairment: 1.0
  Seizure frequency, Tonic: 5.1
[5]
  Seizure frequency, Absence: 6.0
  Seizure frequency, Focal without impairment: 0.0
  Seizure frequency, Tonic: 3.0
[6]
  Seizure frequency, Absence: 0.0
  Seizure frequency, Focal without impairment: 0.0
  Seizure frequency, Tonic: 7.0
[7]
  reduction in absence seizures over the treatment period: 100%
  reduction in focal seizures without impairment over the treatment period: 100%
  reduction in tonic seizures over the treatment period: 50%
[8]
  Seizure frequency, Atonic: 0.0
  Seizure frequency, Focal with impairment: 4.0
  Seizure frequency, Focal without impairment: 0.0
[9]
  Seizure frequency, Atonic: 0.0
  Seizure frequency, Focal with impairment: 2.0
  Seizure frequency, Focal without impairment: 0.0
[10]
  Seizure frequency, Atonic: 0.0
  Seizure frequency, Focal with impairment: 2.0
  Seizure frequency, Focal without impairment: 0.0
[11]
  Seizure frequency, Atonic: 0.0
  Seizure frequency, Focal with impairment: 3.0
  Seizure frequency, Focal without impairment: 1.0
[12]
  Seizure frequency, Atonic: 2.0
  Seizure frequency, Focal with impairment: 2.0
  Seizure frequency, Focal without impairment: 5.0
[13]
  Seizure frequency, Atonic: 3.0
  Seizure frequency, Focal with impairment: 5.0
  Seizure frequency, Focal without impairment: 6.0
Patient 6, treated for 24 weeks, atonic, focal without impairment, focal with impairment
  reduction in seizures over the treatment period (in words): did not experience a reduction in seizures
[14]
  Seizure frequency, Absence: 20.0
  Seizure frequency, Tonic: 372.0
  Seizure frequency, Tonic-clonic: 240.0
[15]
  Seizure frequency, Absence: 12.0
  Seizure frequency, Tonic: 308.0
  Seizure frequency, Tonic-clonic: 448.0
[16]
  Seizure frequency, Absence: 12.0
  Seizure frequency, Tonic: 308.0
  Seizure frequency, Tonic-clonic: 448.0
[17]
  Seizure frequency, Absence: 20.0
  Seizure frequency, Tonic: 248.0
  Seizure frequency, Tonic-clonic: 404.0
[18]
  Seizure frequency, Absence: 20.0
  Seizure frequency, Tonic: 216.0
  Seizure frequency, Tonic-clonic: 356.0
[19]
  Seizure frequency, Absence: 28.0
  Seizure frequency, Tonic: 244.0
  Seizure frequency, Tonic-clonic: 304.0
[20]
  Seizure frequency, Absence: 28.0
  Seizure frequency, Tonic: 244.0
  Seizure frequency, Tonic-clonic: 304.0
[21]
  Seizure frequency, Absence: 32.0
  Seizure frequency, Tonic: 208.0
  Seizure frequency, Tonic-clonic: 280.0
[22]
  Seizure frequency, Absence: 24.0
  Seizure frequency, Tonic: 184.0
  Seizure frequency, Tonic-clonic: 288.0
[23]
  Seizure frequency, Absence: 0.0
  Seizure frequency, Tonic: 0.0
  Seizure frequency, Tonic-clonic: 5.6
[24]
  Seizure frequency, Absence: 0.0
  Seizure frequency, Tonic: 0.0
  Seizure frequency, Tonic-clonic: 2.4
overall, across patients
  reductions in seizures over period of treatment, overall: 43.6-100%
Patients 1, 3 and 7
  benefit in patients with tonic-clonic seizures (in words): significant benefit
Patients 3, 5 and 7
  benefit in patients with absence seizures (in words): significant benefit
Seven patients, open label expanded-access program
  effect on number of seizures associated with gross chromosomal mutations (in words): significantly reduce the number of seizures; also recorded: significant reduction
[25]
  decrease of seizure frequency rates, overall: 44-100%
  effect on frequency of seizure types (in words): effective in reducing the frequency
